Measured values reported in US20260158002A1, “APPLICATION OF COMPOSITION CONTAINING EDARAVONE AND DEXBORNEOL IN IMPROVING OR TREATING COGNITIVE IMPAIRMENT” (NEURODAWN PHARMACEUTICAL CO., LTD., priority 2021, published 2026).

Assays:
primary cortical neurons = experiment: Aβ1-42-induced primary cortical neuronal injury test (Luminescent Cell Viability Assay); type: cell-based, rat; settings: single agent, pre-incubation 30 min before oligomerized Aβ1-42 50 μM, 24 h; edaravone 3.7 to 100 μM, dexborneol 1.2 to 100 μM; vs DMSO group
Procedure: A SD pregnant rat at 18 days of pregnancy was sacrificed by cervical dislocation, the uteruses of the rat were dissected, the brain of E18 fetal rat was taken out, the cerebral cortical tissue of the fetal rat was isolated into an ice-cold DMEM, the meninge and blood vessels were removed from the cortical tissue under a dissecting microscope, the cortical tissue was transferred to an ice-cold DMEM and minced (about 1 mm^3), and digested with trypsin at 37° C. for 10 min, the digestion was terminated with FBS, a Pasteur pipette was used to perform gentle pipetting and dispersing, and screening was then performed using a 200-mesh sieve. […] The cells were counted by a hemocytometer, diluted to 5×10^5 cells/ml with a complete medium, and seeded in a 96-well plate coated with PDL (100 μL/well) for culture. […]
The medium of the in vitro matured primary neurons was replaced with a complete medium containing different concentrations (1.2, 3.7, 11.1, 33.3, 100.0 μM) of edaravone (E), dexborneol (B) or an edaravone and dexborneol composition (EB), after incubation at 37° C. for 30 min, oligomerized Aβ1-42 (final concentration of 50 μM) was added, the culture was continued for 24 h, and the neuronal viability was tested. […] LUMbackground is the background reading of the cell-free medium well into which Luminescent Cell Viability Assay kit is added. […]

[1] = tested on: pro-inflammatory factors (TNF-α, IL-1β, etc.) and inflammatory proteins (iNOS and COX-2); settings: cited from earlier work
GABAAR receptors = settings: cited from earlier work

CC1(C)[C@@H]2CC[C@@]1(C)[C@@H](O)C2 [dexborneol, (+)-borneol]
inhibiting Aβ-induced neurotoxicity, increasing the cell viability (primary cortical neurons): capable of inhibiting Aβ-induced neurotoxicity in a concentration-dependent manner | pro-inflammatory factors and inflammatory proteins within the brain [1]: reduce multiple pro-inflammatory factors (TNF-α, IL-1β, etc.) and inflammatory proteins (iNOS and COX-2) within the brain | agonism of inhibitory GABAAR receptors (GABAAR receptors): can agonize inhibitory GABAAR receptors
